For 2 molecules, Kd and transfer efficiency results are on record in doi:10.1101/2021.04.14.439284v2 (biorxiv, 2021).

SMILES strings stand for the structures.

Assay [1] has as its target T1, bovine serum albumin (BSA) (Bos taurus, UniProt P02769).
T1 construct: gene ALB; commercial native protein (Sigma Aldrich), non-modified
The assay is described as follows: uSTA saturation transfer NMR, Bloch-McConnell fit. The class given is binding.

The target in assay [2] is T2, E. coli trehalose repressor TreR (Escherichia coli, UniProt P36673).
T2 sequence (P36673 1-315): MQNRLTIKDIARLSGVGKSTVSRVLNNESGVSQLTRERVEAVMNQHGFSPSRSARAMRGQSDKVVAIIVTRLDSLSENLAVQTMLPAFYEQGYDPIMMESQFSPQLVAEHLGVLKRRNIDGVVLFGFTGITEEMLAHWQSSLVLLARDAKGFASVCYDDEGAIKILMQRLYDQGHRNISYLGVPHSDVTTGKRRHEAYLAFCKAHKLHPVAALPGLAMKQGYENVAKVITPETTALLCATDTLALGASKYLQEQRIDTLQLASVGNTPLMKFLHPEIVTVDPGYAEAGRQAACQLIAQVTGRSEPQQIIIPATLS
Kind of assay: uSTA saturation transfer NMR. The class given is binding. Particulars: weak ligand.

T1 sequence (P02769 25-607): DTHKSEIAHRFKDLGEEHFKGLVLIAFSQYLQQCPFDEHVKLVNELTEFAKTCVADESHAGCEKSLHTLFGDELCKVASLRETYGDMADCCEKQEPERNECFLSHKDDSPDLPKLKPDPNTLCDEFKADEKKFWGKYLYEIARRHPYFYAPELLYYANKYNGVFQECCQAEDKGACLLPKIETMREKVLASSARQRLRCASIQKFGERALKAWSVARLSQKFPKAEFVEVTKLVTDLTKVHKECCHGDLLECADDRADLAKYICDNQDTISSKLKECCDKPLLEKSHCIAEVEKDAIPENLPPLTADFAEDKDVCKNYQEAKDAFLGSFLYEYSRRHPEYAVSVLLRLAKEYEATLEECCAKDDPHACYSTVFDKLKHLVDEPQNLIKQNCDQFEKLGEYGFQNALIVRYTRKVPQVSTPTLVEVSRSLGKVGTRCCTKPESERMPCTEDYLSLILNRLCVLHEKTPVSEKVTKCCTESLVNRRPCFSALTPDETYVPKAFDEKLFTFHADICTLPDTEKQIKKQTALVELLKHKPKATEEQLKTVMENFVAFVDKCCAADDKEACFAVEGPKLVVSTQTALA

A word on the Kd: it is the equilibrium constant for the complex coming apart. In the case of `N[C@@H](Cc1c[nH]c2ccccc12)C(=O)O` [L-tryptophan], binding in assay [1] was put at a Kd of 38 ± 15 µM. On to `OC[C@H]1O[C@H](O[C@H]2O[C@H](CO)[C@@H](O)[C@H](O)[C@H]2O)[C@H](O)[C@@H](O)[C@@H]1O` [trehalose], for which the transfer efficiency result in assay [2] was “trehalose (Tre) binds only weakly to trehalose repressor protein TreR”.
